Measurements as given in paper PMC10321224 (RSC Advances, 2023).

Experiments:
[1] = system: DU-145 (hormone-refractory prostate cancer cells); experiment: Resazurin antiproliferative assay, DU-145 cells; format: cell-based, human; conditions: towards HFF-1 cell lines
[2] = system: MDA-MB-231 (triple-negative breast cancer cells); experiment: Resazurin antiproliferative assay, MDA-MB-231 cells; format: cell-based, human; conditions: towards HFF-1 cell lines

| Structure (SMILES) | Selectivity index (SI = CC50/IC50) HFF-1/DU-145 [1] | Selectivity index (SI = CC50/IC50) HFF-1/MDA-MB-231 [2] |
| --- | --- | --- |
| C[C@@H]1C[C@H](c2ccc(Br)cc2)c2c(cc3ccccn23)C(=O)O1 (racemic) [cis-4d] | 0.03 | 0.06 |
| COc1cc(OC)cc([C@H]2C[C@@H](C)OC(=O)c3cc4ccccn4c32)c1 (racemic) [cis-4f] | > 2 | > 5 |
